Patent publication US12454518B2, “Substituted N-(2-(2,6-dioxopiperidin-3-yl)-1,3-dioxoisoindolin-5-yl)arylsulfonamide analogs as modulators of cereblon protein” (ST. JUDE CHILDREN'S RESEARCH HOSPITAL, INC., priority 2020, dated 2025)
pEC50, pIC50: −log10 of the molar value. Like-named read-outs stand apart in the source and are kept apart here.

What was measured:
Aqueous solubility assay = format: physicochemical; details: pH = 7.4, in triplicate
Procedure: The storage plate was sealed and incubated at RT for 18 h. The suspension was then filtered through a 96-well filter plate (pION Inc., Woburn, MA). 75 μL of filtrate was mixed with 75 μL 1-propanol to make the sample plate, and the UV spectrum of the sample plate was read. Calculations were carried out with μSOL Evolution software based on the area under the curve (AUC) of the UV spectrum of the sample and reference plates. All compounds were tested in triplicate.

MV4-11 cells [1] = assay: MV-4-11 cell viability assay; details: for pEC50: Homo sapiens
Procedure: MV-4-11 cell line was purchased from the American Type Culture Collection (ATCC, Manassas, VA). The cells were cultured according to recommendations in IMDM cell culture media (ATCC). […] Compounds were transferred to the assay plate from a dose-response plate using a Pintool on a Biomek FXP Laboratory Automation Workstation (Beckman Coulter). […] Luminescence was measured on an Envision plate reader (Perkin-Elmer).
After overnight incubation at 37° C. in a humidified 5% CO2 incubator, cells were treated with compounds in dose-response format using a Pintool on a Biomek FX^P Laboratory Automation Workstation (Beckman Coulter). […] Luminescence signal was measured using an Envision plate reader (Perkin-Elmer).

GSPT1 = molecular target: T1, GSPT1 (Homo sapiens, UniProt P15170+Q96SW2); assay: Immunoblot analysis of GSPT1 degradation in MV4-11 cells; format: cell-based; set-up: Dmax: dose or concentration left out as unconfirmed
T1 construct: endogenous in cells; host or cells: MV4-11
Procedure: (§1) MV4-11 cells were seeded in 6-well plates (1×10^6 cells per well). After overnight incubation, the cells were treated with indicated concentrations for specific timepoints. […] After blocking the membrane with LI-COR TBS blocking buffer and incubation in primary antibody overnight, the corresponding protein signals were detected using IRDye secondary antibodies and Odyssey Imaging System. Image Studio Lite Ver 5.2 was used for blot quantification. […] IRDye®, 800CW Goat anti-Mouse IgG Secondary Antibody and IRDye® 680RD Goat anti-Rabbit IgG Secondary Antibody were used as secondary antibodies.

IKZF1 = molecular target: T2, IKZF1 (Homo sapiens, UniProt Q13422); assay: Immunoblot analysis of IKZF1 degradation in MV4-11 cells; format: cell-based; details: for IKZF1 degradation at 4 hours: any of the concentrations tested
T2 construct: endogenous in cells; host or cells: MV4-11
Procedure: as §1

[2] = molecular target: T3, GSPT1 HiBiT tag protein in HEK293 cells (Homo sapiens, UniProt P15170+Q96SW2); assay: hGSPT1 HiBiT assay; format: cell-based; details: 4 hrs incubation, class symbols, read-out: GSPT1 HiBit EC50
T3 construct: HEK293_hGSPT1_HiBiT tagged cells were generated using CRISPR-Cas12a technology; endogenous in cells; host or cells: HEK293 (genome-edited at the GSPT1 locus, HiBiT knock-in)
Procedure: hGSPT1 HiBiT cell line. HEK293_hGSPT1_HiBiT tagged cells were generated using CRISPR-Cas12a technology. Briefly, ˜400,000 HEK293 cells were transiently co-transfecting with precomplexed ribonuclear proteins (RNPs) consisting of 80 pmol of crRNA (IDT), 62 pmol of Cas12a protein (IDT), 3 ug of ssODN donor (IDT; AItR™ modifications), 78 pmol of electroporation enhancer (IDT), and 200 ng of pMaxGFP(Lonza). The transfection was performed via nucleofection (Lonza, 4D-Nucleofector™ X-unit) using solution P3 and program CM-130 in a small (20 ul) cuvette according to the manufacturer's recommended protocol. Five days post-nucleofection, cells were single cell sorted for GFP+(transfected) cells by FACs in 96-well plates and clonally selected. Clones were screened and verified for the desired modification via targeted deep sequencing using gene specific primers with partial Illumina adapter overhangs as previously described.^58 In brief, clonal cell pellets were harvested, lysed and used to generate gene specific amplicons with partial Illumina adapters in PCR #1. Amplicons were indexed in PCR #2 and pooled with other targeted amplicons for other loci to create sequence diversity. Additionally, 10% PhiX Sequencing Control V3 (Illumina) was added to the pooled amplicon library prior to running the sample on an Miseq Sequencer System (Illumina) to generate paired 2×250 bp reads. Samples were demultiplexed using the index sequences, fastq files were generated, and NGS analysis was performed using CRIS.py.^59 Final clones were authenticated using the PowerPlex® Fusion System (Promega) performed at the Hartwell Center (St. Jude) and tested negative for mycoplasma by the MycoAlert™Plus Mycoplasma Detection Kit (Lonza). Editing construct sequences and screening primers are listed below in Table 4.
hGSPT1 HiBiT assay. […] After 4 hrs incubation, the level of GSPT1 HiBiT tag protein was evaluated using Nano-Glo® HiBiT Lytic Detection System (Promega) according to the manufacturer's instruction.

6XHis-CRBN-DDB1 protein = molecular target: T4, 6XHis-CRBN-DDB1 protein (Homo sapiens, UniProt Q96SW2); assay: CRBN fluorescence polarization assay; format: binding; details: class symbols; read-out: CRBN FP IC50
T4 construct: 6XHis (N)
Procedure: 6XHis-CRBN-DDB1 protein (200 nM) and Cy5-O-Len probe (30 nM) were combined in 20 mM HEPES pH 7, 150 mM NaCl, 0.005% Tween-20 assay buffer. […] The plates were incubated in the dark for 1 hour at room temperature and then read on an Envision plate reader (PerkinElmer, Massachusetts, USA).

[3] = system: caspase 3/7 activity in Mv4:11 cells; assay: Caspase 3/7 activity assay; format: cell-based, human; details: Caspase-Glo, time points 4, 8 and 24 hours; 10 and 100 nM
MV4-11 cells [4] = assay: Lenalidomide competition assay; format: cell-based, human; details: lenalidomide 10 μM, 3 days
Procedure: Compounds were screened in human cancer cell lines and each cell line was cultured in the complete medium recommended by the vendor and seeded in Corning 8804BC white 384-well assay plates at density of 1,000, 1,000, 1,000, 1,500 and 7,500 cells per well, for MV4-11, HD-MB03, MB004, MB002 and MHH-CALL4 cells respectively. After overnight incubation at 37° C. in a humidified 5% CO2 incubator, cells were treated with compounds in dose-response format using a Pintool on a Biomek FX^P Laboratory Automation Workstation (Beckman Coulter). […] After 72 h incubation, cell proliferation was assessed using Cell Titer-Glo (CTG) luminescent cell viability assay (Promega) according to the manufacturer's instruction. Luminescence signal was measured using an Envision plate reader (Perkin-Elmer).

[5] = Pharmacokinetics study in CD1 mice; format: in vivo; details: 3 mg/kg IV
Procedure: Healthy female CD1 mice (8-12 weeks old) weighing between 20 to 30 g were procured from Global, India. Three mice were housed in each cage. Temperature and humidity were maintained at 22±3° C. and 30-70%, respectively and illumination was controlled to give a sequence of 12 hr light and 12 hr dark cycle. Temperature and humidity were recorded by auto-controlled data logger system. All the animals were provided laboratory rodent diet (Envigo Research private Ltd, Hyderabad). Reverse osmosis water treated with ultraviolet light was provided ad libitum. Formulation vehicle: 5% v/v NMP: 5% v/v Solute HS-15 and 90% v/v normal saline. […] The dosing volume for intravenous was 5 mL/kg and for oral administration 10 mL/kg. Blood samples (approximately 60 μL) were collected under light isoflurane anesthesia (Surgivet®) from retro orbital plexus from a set of three mice at 0.08 (for IV only), 0.25, 0.5, 1, 2, 4, 6 (for PO only), 8, 12 and 24 hr. Immediately after blood collection, plasma was harvested by centrifugation at 4000 rpm, 10 min at […] and samples were stored at −70±10° C. until bioanalysis. […] Non-Compartmental-Analysis tool of Phoenix WinNonlin® (Version 8.0) was used to assess the pharmacokinetic parameters. Peak plasma concentration (Cmax) and time for the peak plasma concentration (Tmax) were the observed values. The areas under the concentration time curve (AUClast and AUCinf) were calculated by linear trapezoidal rule. The terminal elimination rate constant, ke was determined by regression analysis of the linear terminal portion of the log plasma concentration-time curve. Clearance was estimated as Dose/AUCinf and Vss as CL*MRT. The oral bioavailability was calculated as ratio of dose normalized AUC of oral and intravenous group multiplied by 100.

[6] = MV4-11, 72 h, read-out: MV4-11 EC50
[7] = MV4-11, read-out: antiproliferative activity in MV4-11, EC50

T1 sequence (P15170 whole entry): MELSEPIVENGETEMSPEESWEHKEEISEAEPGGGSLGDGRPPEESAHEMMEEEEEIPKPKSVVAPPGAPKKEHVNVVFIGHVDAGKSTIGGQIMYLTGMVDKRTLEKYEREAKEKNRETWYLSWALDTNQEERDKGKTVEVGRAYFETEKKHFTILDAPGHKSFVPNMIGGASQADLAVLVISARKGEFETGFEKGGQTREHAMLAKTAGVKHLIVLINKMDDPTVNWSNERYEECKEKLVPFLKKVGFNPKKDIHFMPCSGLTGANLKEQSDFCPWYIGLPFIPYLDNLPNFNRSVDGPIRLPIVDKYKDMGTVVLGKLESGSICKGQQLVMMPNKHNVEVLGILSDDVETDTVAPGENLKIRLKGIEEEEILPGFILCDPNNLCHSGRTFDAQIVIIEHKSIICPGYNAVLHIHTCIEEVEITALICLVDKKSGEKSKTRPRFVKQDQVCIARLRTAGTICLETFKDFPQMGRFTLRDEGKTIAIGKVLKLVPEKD
T1 sequence (Q96SW2 whole entry): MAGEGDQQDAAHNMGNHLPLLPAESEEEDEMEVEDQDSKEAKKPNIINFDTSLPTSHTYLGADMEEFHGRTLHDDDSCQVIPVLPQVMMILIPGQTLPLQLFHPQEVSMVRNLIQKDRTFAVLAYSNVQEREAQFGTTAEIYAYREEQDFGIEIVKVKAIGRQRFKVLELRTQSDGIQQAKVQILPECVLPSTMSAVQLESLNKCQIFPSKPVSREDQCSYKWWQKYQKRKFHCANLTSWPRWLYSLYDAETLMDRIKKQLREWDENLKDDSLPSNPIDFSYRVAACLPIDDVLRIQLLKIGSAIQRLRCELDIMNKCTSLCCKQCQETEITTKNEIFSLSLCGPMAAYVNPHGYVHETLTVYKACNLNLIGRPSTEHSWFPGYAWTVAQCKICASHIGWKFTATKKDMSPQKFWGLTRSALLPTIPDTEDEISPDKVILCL
T1 sequence (Q16531 2-1140 partner limits assumed): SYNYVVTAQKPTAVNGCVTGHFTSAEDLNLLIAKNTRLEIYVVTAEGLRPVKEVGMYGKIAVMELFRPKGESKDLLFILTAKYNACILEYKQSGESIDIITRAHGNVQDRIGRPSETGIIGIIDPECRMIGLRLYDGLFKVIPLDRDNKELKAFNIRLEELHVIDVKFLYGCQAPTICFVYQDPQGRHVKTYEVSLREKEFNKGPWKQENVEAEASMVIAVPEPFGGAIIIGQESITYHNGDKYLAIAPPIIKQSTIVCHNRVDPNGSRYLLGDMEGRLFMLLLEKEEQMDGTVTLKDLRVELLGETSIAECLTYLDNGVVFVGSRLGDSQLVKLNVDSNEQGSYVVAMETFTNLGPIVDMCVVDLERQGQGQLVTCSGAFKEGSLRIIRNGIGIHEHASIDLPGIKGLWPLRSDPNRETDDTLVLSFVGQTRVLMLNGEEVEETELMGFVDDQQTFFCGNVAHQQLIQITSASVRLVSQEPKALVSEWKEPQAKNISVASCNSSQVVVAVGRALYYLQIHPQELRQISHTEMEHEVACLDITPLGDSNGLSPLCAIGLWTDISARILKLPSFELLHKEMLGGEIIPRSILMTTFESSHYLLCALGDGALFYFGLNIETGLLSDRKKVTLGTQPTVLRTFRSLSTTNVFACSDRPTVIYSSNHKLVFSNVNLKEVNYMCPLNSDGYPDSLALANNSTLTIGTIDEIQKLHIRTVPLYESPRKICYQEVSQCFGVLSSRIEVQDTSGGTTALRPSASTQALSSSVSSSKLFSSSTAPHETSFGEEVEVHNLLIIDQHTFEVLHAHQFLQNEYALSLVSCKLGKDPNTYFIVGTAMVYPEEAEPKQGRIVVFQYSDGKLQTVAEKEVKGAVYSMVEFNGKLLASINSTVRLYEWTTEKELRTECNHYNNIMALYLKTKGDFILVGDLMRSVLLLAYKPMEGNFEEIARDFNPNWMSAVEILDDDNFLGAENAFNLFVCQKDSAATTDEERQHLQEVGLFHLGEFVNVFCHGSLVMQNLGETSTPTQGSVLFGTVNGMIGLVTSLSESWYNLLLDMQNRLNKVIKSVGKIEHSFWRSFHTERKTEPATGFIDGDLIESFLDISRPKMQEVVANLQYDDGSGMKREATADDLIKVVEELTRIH
T3 sequence (P15170 whole entry): as the sequence (P15170 whole entry) above
T3 sequence (Q96SW2 whole entry): as the sequence (Q96SW2 whole entry) above
T3 sequence (Q16531 2-1140 partner limits assumed): as the sequence (Q16531 2-1140 partner limits assumed) above
T4 sequence (Q96SW2 whole entry): as the sequence (Q96SW2 whole entry) above
T4 sequence (Q16531 whole entry partner): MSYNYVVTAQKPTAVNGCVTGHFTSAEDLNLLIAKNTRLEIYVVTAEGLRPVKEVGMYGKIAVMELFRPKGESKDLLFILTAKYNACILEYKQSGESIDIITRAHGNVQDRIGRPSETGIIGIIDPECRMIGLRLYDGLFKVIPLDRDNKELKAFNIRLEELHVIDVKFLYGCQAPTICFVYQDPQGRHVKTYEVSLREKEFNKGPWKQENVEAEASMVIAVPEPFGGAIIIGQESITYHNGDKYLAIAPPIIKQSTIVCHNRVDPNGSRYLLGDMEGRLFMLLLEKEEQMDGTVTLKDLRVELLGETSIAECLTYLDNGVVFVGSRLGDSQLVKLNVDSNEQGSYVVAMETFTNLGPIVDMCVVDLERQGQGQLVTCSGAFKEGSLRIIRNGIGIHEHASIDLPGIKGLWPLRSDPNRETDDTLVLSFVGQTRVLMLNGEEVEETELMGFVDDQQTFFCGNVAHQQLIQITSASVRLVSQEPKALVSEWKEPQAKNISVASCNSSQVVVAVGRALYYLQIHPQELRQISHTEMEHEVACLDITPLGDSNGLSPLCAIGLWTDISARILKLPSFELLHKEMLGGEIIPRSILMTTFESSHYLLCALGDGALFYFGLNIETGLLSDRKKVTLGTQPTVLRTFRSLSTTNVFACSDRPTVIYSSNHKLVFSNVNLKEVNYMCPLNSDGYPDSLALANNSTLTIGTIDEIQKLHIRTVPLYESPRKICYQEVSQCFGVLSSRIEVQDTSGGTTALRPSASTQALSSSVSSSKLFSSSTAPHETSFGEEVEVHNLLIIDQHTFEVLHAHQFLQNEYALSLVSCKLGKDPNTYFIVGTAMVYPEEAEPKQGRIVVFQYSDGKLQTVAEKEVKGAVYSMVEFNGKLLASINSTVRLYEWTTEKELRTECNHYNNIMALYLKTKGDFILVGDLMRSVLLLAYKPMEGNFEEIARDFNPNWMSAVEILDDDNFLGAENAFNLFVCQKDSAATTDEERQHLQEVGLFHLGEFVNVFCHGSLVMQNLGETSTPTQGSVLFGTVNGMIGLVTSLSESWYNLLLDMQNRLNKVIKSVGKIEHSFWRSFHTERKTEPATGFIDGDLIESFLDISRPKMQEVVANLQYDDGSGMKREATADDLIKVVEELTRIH
T2 sequence (Q96SW2 whole entry partner): as the sequence (Q96SW2 whole entry) above
T2 sequence (Q16531 2-1140 partner limits assumed): as the sequence (Q16531 2-1140 partner limits assumed) above
T2 sequence (Q13422 whole entry): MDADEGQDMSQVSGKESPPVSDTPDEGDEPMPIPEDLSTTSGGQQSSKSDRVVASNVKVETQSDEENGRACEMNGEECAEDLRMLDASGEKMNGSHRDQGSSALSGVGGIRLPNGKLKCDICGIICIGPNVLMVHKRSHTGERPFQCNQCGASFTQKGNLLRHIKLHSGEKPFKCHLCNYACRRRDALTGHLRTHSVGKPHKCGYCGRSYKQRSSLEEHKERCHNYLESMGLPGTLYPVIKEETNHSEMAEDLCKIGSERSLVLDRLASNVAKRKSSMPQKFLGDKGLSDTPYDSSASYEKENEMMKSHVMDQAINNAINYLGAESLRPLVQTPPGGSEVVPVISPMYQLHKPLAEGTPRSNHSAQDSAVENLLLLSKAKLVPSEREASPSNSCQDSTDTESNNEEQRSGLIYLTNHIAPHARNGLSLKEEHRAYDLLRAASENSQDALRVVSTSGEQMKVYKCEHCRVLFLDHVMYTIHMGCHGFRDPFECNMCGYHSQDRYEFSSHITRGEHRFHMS

For `O=C1CCC(N2C(=O)c3ccc(NS(=O)(=O)c4ccccc4)cc3C2=O)C(=O)N1` (stereo not drawn) [compound 20, N-(2-(2,6-dioxopiperidin-3-yl)-1,3-dioxoisoindolin-5-yl)benzenesulfonamide], the “Sol. (aqueous solubility)” value (Aqueous solubility assay) was 71 µM, the pEC50 (MV4-11 cells [1]; [6]) was < 5.00 and the “cell potency in MV4-11 cells (in words)” value (MV4-11 cells [1]; MV4-11 cells) was “inactive”.

For `O=C1CCC(N2C(=O)c3ccc(NS(=O)(=O)c4cccc(OC(F)(F)F)c4)cc3C2=O)C(=O)N1` (stereo not drawn) [compound 2, N-(2-(2,6-dioxopiperidin-3-yl)-1,3-dioxoisoindolin-5-yl)-3-(trifluoromethoxy)benzenesulfonamide], the “Sol. (aqueous solubility)” value (Aqueous solubility assay) was 64 µM, the “effects on the protein levels of GSPT1 by immunoblotting” value (GSPT1; MV4-11 cells) was “no effects” and the “effects on the protein levels of IKZF1 by immunoblotting” value (IKZF1) was “no effects”. The “IKZF1 protein abundance after 24 hours” value (IKZF1) was “dose-dependent decrease”, the pEC50 (MV4-11 cells [1]; [6]) was < 5.00 and the pEC50 (MV4-11 cells [1]; [7]) was 7.28.

For `O=C1CCC(N2Cc3cc(NS(=O)(=O)c4ccccc4)ccc3C2=O)C(=O)N1` (stereo not drawn) [compound 38, N-(2-(2,6-dioxopiperidin-3-yl)-1-oxoisoindolin-5-yl)benzenesulfonamide], the DC50 [2] was > 10 µM.

With `Cc1ccc(S(=O)(=O)Nc2ccc3c(c2)C(=O)N(C2CCC(=O)NC2=O)C3=O)cc1Cl` (stereo not drawn) [compound 7, 3-chloro-N-(2-(2,6-dioxopiperidin-3-yl)-1,3-dioxoisoindolin-5-yl)-4-methylbenzenesulfonamide] the pEC50 (MV4-11 cells [1]; [6]) was < 5.00.

In the case of `O=C1CCC(N2C(=O)c3ccc(NS(=O)(=O)c4ccc(F)cc4Cl)cc3C2=O)C(=O)N1` (stereo not drawn) [compound 67, 2-chloro-N-(2-(2,6-dioxopiperidin-3-yl)-1,3-dioxoisoindolin-5-yl)-4-fluorobenzenesulfonamide], the pIC50 (6XHis-CRBN-DDB1 protein) was > 6.00 and the DC50 [2] was > 10 µM.

For `CC(C)(C)c1ccc(S(=O)(=O)Nc2ccc3c(c2)CN(C2CCC(=O)NC2=O)C3=O)cc1` (stereo not drawn) [compound 46], the DC50 [2] was < 1 µM.

In the case of `Cc1c(Cl)cccc1S(=O)(=O)Nc1ccc2c(c1)C(=O)N(C1CCC(=O)NC1=O)C2=O` (stereo not drawn) [compound 5, 3-chloro-N-(2-(2,6-dioxopiperidin-3-yl)-1,3-dioxoisoindolin-5-yl)-2-methylbenzenesulfonamide], the “Sol. (aqueous solubility)” value (Aqueous solubility assay) was 64 µM, the Dmax (GSPT1; MV4-11, read-out: GSPT1 maximum degradation efficacy, Dmax) was 60% and the “IKZF1 degradation at 4 hours” value (IKZF1) was “did not significantly degrade IKZF1”. The “time point at which caspase activation was observed” value [3] was 24 h, the “antiproliferative effect in presence of lenalidomide” value (MV4-11 cells [4]) was “abrogating the antiproliferative effects” and the pEC50 (MV4-11 cells [1]; [6]) was 7.28.

With `O=C1CCC(N2Cc3cc(NS(=O)(=O)c4cccc(OC(F)(F)F)c4)ccc3C2=O)C(=O)N1` (stereo not drawn) [compound 43, N-(2-(2,6-dioxopiperidin-3-yl)-1-oxoisoindolin-5-yl)-3-(trifluoromethoxy)benzenesulfonamide] the DC50 [2] was < 1 µM.

In the case of `O=C1CCC(N2Cc3cc(CNC(=O)C(F)(F)c4ccc(Cl)cc4)ccc3C2=O)C(=O)N1` (stereo not drawn) [CC-90009, reference compound], the Dmax at 10 µM (GSPT1; MV4-11 cells, 4 h, at 10 μM, read-out: GSPT1 maximum degradation efficacy, Dmax) was 74%, the Dmax (GSPT1; MV4-11 cells, 24 h, read-out: GSPT1 Dmax) was > 90% and the Dmax (IKZF1; 24 h) was > 90%.

For `O=C1CCC(N2C(=O)c3ccc(NS(=O)(=O)c4ccccc4OC(F)(F)F)cc3C2=O)C(=O)N1` (stereo not drawn) [compound 1, N-(2-(2,6-dioxopiperidin-3-yl)-1,3-dioxoisoindolin-5-yl)-2-(trifluoromethoxy)benzenesulfonamide], the “Sol. (aqueous solubility)” value (Aqueous solubility assay) was 67 µM, the “IKZF1 degradation at 4 hours” value (IKZF1) was “did not significantly degrade IKZF1” and the “IKZF1 protein abundance after 24 hours” value (IKZF1) was “dose-dependent decrease”. The “time point at which caspase activation was observed” value [3] was 8 h, the clearance [5] was 0.46 mL/min/kg and the “terminal elimination half-life (t1/2)” value [5] was 3.4 h. For the same compound, the volume of distribution [5] was 0.15 L/kg, the “antiproliferative effect in presence of lenalidomide” value (MV4-11 cells [4]) was “abrogating the antiproliferative effects” and the pEC50 (MV4-11 cells [1]; [6]) was 8.82. The pEC50 (MV4-11 cells [1]; [7]) was 8.82.

In the case of `O=C1CCC(N2C(=O)c3ccc(NS(=O)(=O)c4cccc(Cl)c4F)cc3C2=O)C(=O)N1` (stereo not drawn) [compound 61, 3-chloro-N-(2-(2,6-dioxopiperidin-3-yl)-1,3-dioxoisoindolin-5-yl)-2-fluorobenzenesulfonamide], the pIC50 (6XHis-CRBN-DDB1 protein) was > 6.00.

For `O=C1CCC(N2Cc3cc(CNC(=O)C(F)(F)c4ccc(Cl)cc4)ccc3C2=O)C(=O)N1` (stereo not drawn) [CC90009, reference compound], the “Sol. (aqueous solubility)” value (Aqueous solubility assay) was 77 µM.

With `Cc1ccc(CS(=O)(=O)Nc2ccc3c(c2)C(=O)N(C2CCC(=O)NC2=O)C3=O)cc1` (stereo not drawn) [compound 58, N-(2-(2,6-dioxopiperidin-3-yl)-1,3-dioxoisoindolin-5-yl)-1-(p-tolyl)methanesulfonamide] the pIC50 (6XHis-CRBN-DDB1 protein) was > 6.00.

For `O=C1CCC(N2Cc3cc(NS(=O)(=O)c4ccccc4C(F)(F)F)ccc3C2=O)C(=O)N1` (stereo not drawn) [compound 44, N-(2-(2,6-dioxopiperidin-3-yl)-1-oxoisoindolin-5-yl)-2-(trifluoromethyl)benzenesulfonamide], the DC50 [2] was > 10 µM.

In the case of `Cc1noc(C)c1S(=O)(=O)Nc1ccc2c(c1)C(=O)N(C1CCC(=O)NC1=O)C2=O` (stereo not drawn) [compound 60, N-(2-(2,6-dioxopiperidin-3-yl)-1,3-dioxoisoindolin-5-yl)-3,5-dimethylisoxazole-4-sulfonamide], the pIC50 (6XHis-CRBN-DDB1 protein) was > 6.00.
